Results on two compounds are retold here after US9572760B2, “Uses of compounds and mixtures from Antrodia cinnamomea mycelia” (Simpson Biotech Co., Ltd., priority 2013, dated 2017).

The subject of one assay is Mouse primary HSC. The assay can be described thus: Profibrogenic gene expression in primary hepatic stellate cells (qRT-PCR). Type of assay: cell-based. Particulars: for Collagen-1 expression / TGF-β expression / TIMP-1 expression / αSMA expression: two concentrations, 72 hrs. The source says:
The AML12 (mouse hepatocyte) cells were obtained from the BCRC (Bioresource Collection and Research Center) and cultured in Dulbecco's modified Eagle media (DMEM, Gibco by Invitrogen) with 1% antibiotic antimycotic (Gibco by Invitrogen) and 15% fetal bovine serum (Gibco by Invitrogen). The human Hepatic Stellate Cell, HSC cell line was obtained from the ScienCell Research Laboratory (USA) and cultured in complete medium, Stellate Cell Medium (ScienCell Research Laboratory) with 2% fetal bovine serum (ScienCell Research Laboratory), 1% stellate cell growth supplement (ScienCell Research Laboratory) and 1% penicillin/streptomycin solution (ScienCell Research Laboratory). It is well known that TGF-β1 can activation of HSC, which was used as a positive control, the HSC cells were seeded in plate for 24 h and then the cells were replaced with medium containing 10 ng TGF-β1 (PeproTech, USA). For primary hepatic stellate cell isolation, C57BL/6 mice were anesthetized by intraperitoneal injection of ketamine and xylazine. […] Mouse livers were perfused in situ with 0.5 mM EGTA containing calcium-free salt solution (8 ml/min, 37° C. for 5 minutes), followed by perfusion with 2-step 0.05% collagenase D and pronase containing buffer (Roche Molecular Biochemicals, Indianapolis, Ind.) for 5 and 10 minutes, respectively. The harvested liver was minced gently on a Petri dish and additional incubation with protease containing buffer at 37° C. for 25 minutes. Then, the liver was filtered with 70 μm cell strainer. Cells were centrifuged and collected followed by 8.2% Nycodenz (Accurate Chemical and Scientific Corp.). The cell lines were cultured at 37° C. in a humidified atmosphere containing 5% CO2.
Exponentially growing cells were harvested and seeded in a 6-well microtiter plate. Each well of cells were collected to eppendrof in 1 mL of TRIzol buffer (Invitrogen, Carlsbad, Calif., USA), and then mixed with 0.5 mL chloroform/isoamyl alcohol (24:1), eppendrofs were centrifuged at 12,000×g for 10 min at 4° C. The supernatant was transferred to a fresh tube, and isopropanol was added, mix well and stored at −80° C. overnight. The reaction mixture was centrifuged at 12,000×g for 30 min at 4° C. to produce a rude RNA pallet, the pellet was washed with 70% ethanol and air-dried. The concentrations of total RNA were measured by absorbance at 260 nm using a NanoDrop ND-1000 (NanoDrop, USA).
(§1) Reverse transcription reaction was performed using a commercially available set of High Capacity RNA-to-cDNA Kit (Applied Biosystems, USA). cDNA was prepared from 2 μg of total RNA per 20 μl reaction, according to the manufacturer's instructions—37° C. for 60 minutes, 95° C. for 5 minutes, and hold at 4° C. The resulting cDNA was to a final concentration of 100 ng/μl and constituted a matrix in further experiments.
Amplification and detection the gene expression by real-time PCR were performed using StepOne plus Real-time PCR System (Applied Biosystems, USA). Samples were assayed in a 10 μl reaction mixture containing 2 μl of template DNA, 5 μl of 2× TaqMan PCR Master Mix (Applied Biosystems, Life Technologies, Foster City, Calif., USA), 0.5 μl of 20× assay mix containing probe, forward and reverse primer (Applied Biosystems, Life Technologies, Foster City, Calif., USA), whereby qPCR targets with the following information were used: (a) α-SMA, Assay ID Rn01759928_g1, (b) TIMP-1, Assay ID Rn00587558_m1, (c) TGF-β1, Assay ID Rn00572010_m1, (d) Collagen I, Assay ID Rn 01463838_m1, (e) GAPDH, Assay ID Rn1462662_g1. To control variation in mRNA concentration, all results were normalized to the housekeeping gene, GAPDH. Relative quantitation was performed using the comparative ΔΔCt method according to the manufacturer's instructions. The cycling conditions used were as follows: 50° C. for 2 min, 95° C. for 10 min followed by 40 cycles of 95° C. for 15 s and 60° C. for 1 min each. […]
Background: In qPCR the cycle at which signal appears reflects the starting amount.

Assay [1] concerns Dermal fibroblast, CG1639 cells. The assay can be described thus: Profibrogenic gene expression in dermal fibroblast cell line (qRT-PCR). Type of assay: cell-based. Particulars: two concentrations, 72 hrs.
From the text: The dermal fibroblast cell line CG1639 was obtained from the BCRC (Bioresource Collection and Research Center) and cultured in Dulbecco's modified Eagle media (DMEM, Gibco by Invitrogen) with 1% antibiotic antimycotic (Gibco by Invitrogen) and 15% fetal bovine serum (Gibco by Invitrogen). The fetal rat skin keratinocyte, FRSK cell line was obtained from the Japan HSRRB (Health Science Research Resources Bank) and cultured in Eagle's minimal essential media (MEM, Gibco by Invitrogen) supplemented with 10% fetal bovine serum (FBS) (Gibco by Invitrogen) and 1% antibiotic antimycotic (Gibco by Invitrogen). B16F10 cells, a murine melanoma cell line, were purchased from American Type Culture Collection (ATCC, Rockville, Md., USA) and was cultured in Eagle's Minimum Essential Medium (MEM; Sigma, St. Louis, Mo.) supplemented with 10% fetal bovine serum (FBS; HyClone Lab. Inc., Logan, Utah), 0.02% antibiotic-antimycotic liquid (penicillin, 10 000 U mL^−1; streptomycin, 10 000 μg mL^−1 and amphotericin B, 25 μg mL^−1; Invitrogen, Carlsbad, Calif.).
as §1
Amplification and detection the gene expression by real-time PCR were performed using StepOne plus Real-time PCR System (Applied Biosystems, USA). Samples were assayed in a 10 μl reaction mixture containing 2 μl of template DNA, 5 μl of 2× TaqMan PCR Master Mix (Applied Biosystems, Life Technologies, Foster City, Calif., USA), 0.5 μl of 20× assay mix containing probe, forward and reverse primer (Applied Biosystems, Life Technologies, Foster City, Calif., USA), whereby qPCR targets with the following information were used: (a) α-SMA, Assay ID Rn01759928_g1, (b) TIMP-1, Assay ID Rn00587558_m1, (c) TGF-β1, Assay ID Rn00572010_m1, (d) Collagen I, Assay ID Rn 01463838_m1, (e) GAPDH, Assay ID Rn1462662_g1. To control variation in mRNA concentration, all results were normalized to the housekeeping gene, GAPDH. Relative quantitation was performed using the comparative ΔΔCt method according to the manufacturer's instructions. The cycling conditions used were as follows: 50° C. for 2 min, 95° C. for 10 min followed by 40 cycles of 95° C. for 15 s and 60° C. for 1 min each.
Dermal fibroblast, CG1639 cells, were exposed to Hepasim compounds by two different concentrations for 72 hrs. Then, RNA was extracted and subsequent real-time quantitative PCR Collagen-1, TGF-β1, α-SMA and TIMP-1 mRNA were measured.

The next assay has as its system cirrhotic animals. The assay can be described thus: Liver fibrosis: hydroxyproline content in the liver and Sirius red staining, DEN cirrhotic animal model. Particulars: compound B 7 mg/kg, compound C 14 mg/kg, ACM 320 mg/kg, vs control group.

`CC(C)=CCOc1ccc(C2=C(CC(C)C)C(=O)NC2=O)cc1` [Compound B, 3-isobutyl-4-[4-(3-methyl-2-butenyloxy)phenyl]-1H-pyrrol-2,5-dione]: in the assay with Mouse primary HSC, the “anti-fibrosis effect on primary HSC (summary)” value is on record as “anti-fibrosis effect”, the Collagen-1 expression entry is recorded as “dose-dependent effect”, the TGF-β expression result was “dose-dependent effect” and the TIMP-1 expression entry is “dose-dependent effect”. For the same compound, in the assay with Mouse primary HSC, the αSMA expression entry is “dose-dependent effect”. For the same compound, in assay [1], the “All-4 profibrogenic gene expression (Collagen-1, TGF-β1, α-SMA, TIMP-1)” value is on record as “down-regulated significantly” and the “dose dependence of profibrogenic gene down-regulation” value is given as “dose-dependent effect”. In the assay on cirrhotic animals, the “liver cirrhosis (hydroxyproline levels and Sirius red-positive areas)” value is listed as “markedly ameliorated”.

Regarding `CC(C)=CCOc1ccc(C2=C(CC(C)C)C(=O)N(O)C2=O)cc1` [Compound C, 3-isobutyl-4-[4-(3-methyl-2-butenyloxy)phenyl]-1H-pyrrol-1-ol-2,5-dione], in the assay with Mouse primary HSC, the “anti-fibrosis effect on primary HSC (summary)” value is “anti-fibrosis effect”, the Collagen-1 expression result is “dose-dependent effect”, the TGF-β expression result was “dose-dependent effect” and the TIMP-1 expression result is on record as “dose-dependent effect”. Moreover, in the assay with Mouse primary HSC, the αSMA expression result is given as “dose-dependent effect”. Besides, in assay [1], the “All-4 profibrogenic gene expression (Collagen-1, TGF-β1, α-SMA, TIMP-1)” value was “down-regulated significantly” and the “dose dependence of profibrogenic gene down-regulation” value is reported as “dose-dependent effect”. In addition, the “liver cirrhosis (hydroxyproline levels and Sirius red-positive areas)” value with cirrhotic animals is given as “markedly ameliorated”.
